According to paper PMC3951225, “Cytotoxic Sesquiterpene Lactones from Kauna lasiophthalma Griseb” (Scientia Pharmaceutica, 2014):

Key:
Assay type in all cases: cell-based, human
[1] = test system: HCC1937 cells; assay: MTT cytotoxicity dose-response assay, HCC1937; conditions: 72 h treatment, a/b/c = one, two, three or more dose-response curves
Method: (§1) The L56Br-C1 cell line was established at the Department of Oncology, Clinical Sciences, Lund University, Sweden. The JIMT-1 cell line was purchased from the German Collection of Microorganisms and Cell Cultures (Braunschweig, Germany) and the MCF-7, SK-BR-3, HCC1937, and MCF-10A cells were obtained from the American Tissue Type Culture Collection (Manassas, VA, USA). The cell lines were cultured as monolayers at 37°C in a humidified incubator with 5% CO2 in air. The MCF-10A cells have a population doubling time of 15 hours, the JIMT-1 cells 24 hours, and the other four cell lines around 35 hours.
(§2) The L56Br-C1, MCF-7, SK-BR-3, and HCC1937 cells were cultured as described by Holst et al. JIMT-1 cells were cultured in DMEM/Ham’s F12 medium supplemented with 10% fetal calf serum, non-essential amino acids (1 mM), insulin (10 μg/ml), penicillin (100 U/ml), and streptomycin (100 μg/ml). MCF-10A cells were maintained in RPMI 1640 medium supplemented with 10% heat-inactivated fetal calf serum, non-essential amino acids (1 mM), insulin (10 μg/ml), epidermal growth factor (20 ng/ml), cholera toxin (50 ng/ml), hydrocortisone (250 ng/ml), penicillin (100 U/ml), and streptomycin (100 μg/ml). The MCF-10A and JIMT-1 cell lines were sub-cultured twice a week, while the L56Br-C1, MCF-7, SK-BR-3, and HCC1937 cells were sub-cultured once a week with an additional change of growth medium once a week.
(§3) Stock solutions ([…]) of the compounds were made in 100% DMSO. These were further diluted in PBS to obtain the correct concentrations used for the MTT assay. Appropriate DMSO controls were used. In general, the highest DMSO concentration was 0.1%, however, when treating with 100 μM and starting from a […] in 100% DMSO, a final concentration of 1% DMSO was used as the control.
(§4) The MTT assay was performed as previously described. Briefly, the cells were trypsinized and counted in a hemocytometer. Aliquots of 180 μl cell suspensions containing 3000 (MCF-10A) and 6000 (MCF-7, SK-BR-3, JIMT-1, L56Br-C1, and HCC1937) cells were seeded in the wells of 96-well plates. Compounds were added 24 hours after seeding to allow the attachment of cells. A concentration range between 0.1 to 100 μM was used in the MTT assays and appropriate DMSO controls. At 72 h of drug treatment, 20 μl of MTT solution (5 mg/ml MTT in PBS) was added to each well and the 96-well plates were returned to the CO2 incubator for 1 hour. The MTT-containing medium was removed. The blue formazan product formed by the reduction in live attached cells was dissolved by adding 100 μl of 100% DMSO per well after removal of the MTT-containing medium. The plates were swirled gently at room temperature for 10 minutes to dissolve the precipitate. Absorbance was monitored at 540 nm in a Labsystems iEMS Reader MF (Labsystems Oy, Helsinki, Finland) using the DeltaSoft II v.4.14 software (Biometallics Inc., Princeton, NJ, USA). Dose-response curves were drawn based on the % of the control in Excel. The IC50 was deduced from the curves.

[2] = test system: JIMT-1 cells; assay: MTT cytotoxicity dose-response assay, JIMT-1; conditions: 72 h treatment, a/b/c = one, two, three or more dose-response curves
Method: as §1, §2, §3, §4

[3] = test system: L56Br-C1 cells; assay: MTT cytotoxicity dose-response assay, L56Br-C1; conditions: 72 h treatment, a/b/c = one, two, three or more dose-response curves
Method: as §1, §2, §3, §4

[4] = test system: MCF-7 cells; assay: MTT cytotoxicity dose-response assay, MCF-7; conditions: 72 h treatment, a/b/c = one, two, three or more dose-response curves
Method: as §1, §2, §3, §4

[5] = test system: SK-BR-3 cells; assay: MTT cytotoxicity dose-response assay, SK-BR-3; conditions: 72 h treatment, a/b/c = one, two, three or more dose-response curves
Method: as §1, §2, §3, §4

[6] = MTT cytotoxicity dose-response assay, MCF-10A (non-cancerous); conditions: human, MCF-10A cells (normal-like breast epithelial cell line), 72 h treatment, a/b/c = one, two, three or more dose-response curves
Method: as §1, §2, §3, §4

[7] = test system: breast cancer cell lines HCC1937, JIMT-1, L56Br-C1, MCF-7, and SK-BR-3; assay: MTT assay, panel of five breast cancer cell lines; conditions: for Anticancer activity / relative potency in words: breast cell lines, comparison among the tested compounds
Method: The anticancer activities of sesquiterpenes 1, 3, 6–9, 11, 12, 14, and 16 were assessed in five breast-cancer cell lines, HCC1937, JIMT-1, L56Br-C1, MCF-7, and SK-BR-3, and compared with the cytotoxicity in the breast-derived non-cancerous cell line MCF-10A using the MTT colorimetric assay. […] 16 is an unsaturated ester and differs in that respect from the other compounds, but the lower activity of 3 compared to the similar compounds was unexpected. Costunolide (1) differs from the eudesmane sesquiterpenes by having the unsaturated lactone fused with a macrocyclic system instead of a cyclohexane ring, and the tension of the lactone ring is likely to be lower in 1. […] The difference in the activities of 7 and 8 may depend on the higher lipophilicity of 8, facilitating its absorption into the cells. In 11 and 14, the presence of a second Michael acceptor function may influence the activity. […] MCF-7 has a normal wild type p53 gene, which the MCF-10A cells also have, while the others have a mutated p53.
as §3, §4

Row | Compound | IC50 ([1]; Homo sapiens, HCC1937, 72 h) [µM] | IC50 ([2]; Homo sapiens, JIMT-1, 72 h) [µM] | IC50 ([3]; Homo sapiens, 72 h) [µM] | IC50 ([4]; Homo sapiens, MCF7, 72 h) [µM] | IC50 ([5]; Homo sapiens, SK-BR-3, 72 h) [µM] | IC50 at 72 h [6] [µM] | Anticancer activity / relative potency in words [7] | IC50 [2] [µM] | IC50 [3] [µM] | IC50 [1] [µM] | IC50 ([7]; Homo sapiens, five breast cancer cell lines, read-out: IC50 values, range over the cancer cell lines) [µM] | IC50 [4] [µM] | IC50 [5] [µM]
1 | C=C1C(=O)O[C@@H]2[C@@H]3[C@@](C)(CC[C@@H]12)[C@@H](OC(C)=O)CC[C@]3(C)O (relative stereo) [Compound 3, (+)-(3aS*,5aR*,6S*,9S*,9aS*,9bS*)-9-Hydroxy-5a,9-dimethyl-3-methylidene-2-oxododeca-hydronaphtho[1,2-b]furan-6-yl acetate] | 23 | 18 | 9.3 | 27 | 10.1 | 38 | lowest activity |  |  |  |  |  | 
2 | C=C1CC[C@H](OC(C)=O)[C@]2(C)CC[C@H]3C(=C)C(=O)O[C@@H]3[C@@H]12 (relative stereo) [Compound 8, (3aS*,5aR*,6S*,9aS*,9bS*)-5a-Methyl-3,9-dimethylidene-2-oxododecahydro-naphtho[1,2-b]furan-6-yl acetate] |  | 6.3 | 8.4 | 11 ± 1.7 | 4.7 ± 1.1 | 24 |  | 7 | 12 |  |  |  | 
3 | C=C1C(=O)O[C@@H]2/C=C(\C)CC/C=C(\C)CC[C@@H]12 [Compound 1, costunolide] | 2.2 | 6.2 | 3.7 | 5.3 ± 1.4 | 2 ± 1 | 20 | most active in all of the cell lines | 6.3 | 4.8 | 4.2 | 2 to 6.2 |  | 
4 | C=C1CC[C@@H](O)[C@]2(C)CC[C@H]3C(=C)C(=O)O[C@@H]3[C@@H]12 [Compound 6, reynosin] | 10 | 8.5 | 11 | 16.4 ± 7.1 | 5.2 ± 1.6 | 17 |  | 12 |  |  |  |  | 
5 | C=C1C(=O)OC2C1CCC1(C)C(O)CCC(=C)C21 (stereo not drawn) [Compound 7, 1-epi-reynosin] | 12 | 12 | 9 | 23 | 7.6 | 22 |  | 14 | 10.1 | 18.5 |  | 30 | 6.4
